The values that follow come from the supplement of paper PMC10307832.

One assay relates to NCI-H1563. Put plainly: relative viability (nuclei count vs DMSO), 5 days (fraction); higher = more cells survive. The conditions noted are these: first compound 6.325 µM. Summed up:
(§1)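 Nuclei were stained with Hoechst during a one-step fixation (final 0.05% Triton X-100, 1% formaldehyde, 1 ug/ml Hoechst) carried out 5 days after dosing, then counted on 4× images. The cells, lung cancer lines in 1536-well plates, had been dosed by pin tool the day after seeding with one drug alone or a fixed anchor-drug dose plus five library-drug doses (not always all listed) in √10 steps. Relative viability is the nuclei count in treated wells divided by that in vehicle wells, and each value is the median of duplicate plates.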
`COCC1(CO)C(=O)C2CCN1CC2` (stereo unspecified) [PRIMA-1MET] + C[C@]1(O)C[C@@H](c2nc(-c3ccc4ccc(-c5ccccc5)nc4c3)c3c(N)nccn32)C1 [Linsitinib] (partner 1 µM): the relative viability stood at 1.23.
For `COCC1(CO)C(=O)C2CCN1CC2` (stereo unspecified) [PRIMA-1MET] + COc1cc2c(Oc3ccc(NC(=O)C4(C(=O)Nc5ccc(F)cc5)CC4)cc3F)ccnc2cc1OCCCN1CCOCC1 [Foretinib] (partner 0.25 µM), the relative viability came to 0.911.
The molecule `COCC1(CO)C(=O)C2CCN1CC2` (stereo unspecified) [PRIMA-1MET] + Cc1nc(NC(=O)N2CCC[C@H]2C(N)=O)sc1-c1ccnc(C(C)(C)C(F)(F)F)c1 [Alpelisib] (partner 2 µM) came in with a relative viability of 1.05.

Staying with this assay, now noted: first compound 20 µM.
Regarding `COCC1(CO)C(=O)C2CCN1CC2` (stereo unspecified) [PRIMA-1MET] + CS(=O)(=O)N1CCN(Cc2cc3nc(-c4cccc5[nH]ncc45)nc(N4CCOCC4)c3s2)CC1 [Pictilisib] (partner 1 µM), the relative viability is 0.345.
For `COCC1(CO)C(=O)C2CCN1CC2` (stereo unspecified) [PRIMA-1MET] + CS(=O)(=O)CCNCc1ccc(-c2ccc3ncnc(Nc4ccc(OCc5cccc(F)c5)c(Cl)c4)c3c2)o1 [Lapatinib] (partner 2 µM), the relative viability is 0.455.
Molecule `COCC1(CO)C(=O)C2CCN1CC2` (stereo unspecified) [PRIMA-1MET] + C[C@]1(O)C[C@@H](c2nc(-c3ccc4ccc(-c5ccccc5)nc4c3)c3c(N)nccn32)C1 [Linsitinib] (partner 1 µM) yielded a relative viability of 0.368.
`COCC1(CO)C(=O)C2CCN1CC2` (stereo unspecified) [PRIMA-1MET] + COc1cc2c(Oc3ccc(NC(=O)C4(C(=O)Nc5ccc(F)cc5)CC4)cc3F)ccnc2cc1OCCCN1CCOCC1 [Foretinib] (partner 0.25 µM): the relative viability is 0.288.
Molecule `COCC1(CO)C(=O)C2CCN1CC2` (stereo unspecified) [PRIMA-1MET] + Cc1nc(NC(=O)N2CCC[C@H]2C(N)=O)sc1-c1ccnc(C(C)(C)C(F)(F)F)c1 [Alpelisib] (partner 2 µM) displayed a relative viability of 0.361.

Another assay relates to NCI-H1666. The description is as above. As to conditions: first compound 0.2 µM. Summed up:
as §1
In turn, `COCC1(CO)C(=O)C2CCN1CC2` (stereo unspecified) [PRIMA-1MET] + CS(=O)(=O)N1CCN(Cc2cc3nc(-c4cccc5[nH]ncc45)nc(N4CCOCC4)c3s2)CC1 [Pictilisib] (partner 1 µM) yielded a relative viability of 0.494.
On the same count and under the same terms, as for `COCC1(CO)C(=O)C2CCN1CC2` (stereo unspecified) [PRIMA-1MET] + CS(=O)(=O)CCNCc1ccc(-c2ccc3ncnc(Nc4ccc(OCc5cccc(F)c5)c(Cl)c4)c3c2)o1 [Lapatinib] (partner 2 µM), the figure is 0.765.
The same measure, in the same setting: to `COCC1(CO)C(=O)C2CCN1CC2` (stereo unspecified) [PRIMA-1MET] + C[C@]1(O)C[C@@H](c2nc(-c3ccc4ccc(-c5ccccc5)nc4c3)c3c(N)nccn32)C1 [Linsitinib] (partner 1 µM) belongs 0.794.
Turning to `COCC1(CO)C(=O)C2CCN1CC2` (stereo unspecified) [PRIMA-1MET] + COc1cc2c(Oc3ccc(NC(=O)C4(C(=O)Nc5ccc(F)cc5)CC4)cc3F)ccnc2cc1OCCCN1CCOCC1 [Foretinib] (partner 0.25 µM), the relative viability was determined as 0.959.
On the same count and under the same terms, as for `COCC1(CO)C(=O)C2CCN1CC2` (stereo unspecified) [PRIMA-1MET] + Cc1nc(NC(=O)N2CCC[C@H]2C(N)=O)sc1-c1ccnc(C(C)(C)C(F)(F)F)c1 [Alpelisib] (partner 2 µM), the figure is 1.1.

Still in this assay, the particulars now being: first compound 0.6325 µM.
Take `COCC1(CO)C(=O)C2CCN1CC2` (stereo unspecified) [PRIMA-1MET] + CS(=O)(=O)N1CCN(Cc2cc3nc(-c4cccc5[nH]ncc45)nc(N4CCOCC4)c3s2)CC1 [Pictilisib] (partner 1 µM): the relative viability was 0.335.
As for `COCC1(CO)C(=O)C2CCN1CC2` (stereo unspecified) [PRIMA-1MET] + CS(=O)(=O)CCNCc1ccc(-c2ccc3ncnc(Nc4ccc(OCc5cccc(F)c5)c(Cl)c4)c3c2)o1 [Lapatinib] (partner 2 µM), the relative viability is 0.584.
On the same count and under the same terms, as for `COCC1(CO)C(=O)C2CCN1CC2` (stereo unspecified) [PRIMA-1MET] + C[C@]1(O)C[C@@H](c2nc(-c3ccc4ccc(-c5ccccc5)nc4c3)c3c(N)nccn32)C1 [Linsitinib] (partner 1 µM), the figure is 0.781.
`COCC1(CO)C(=O)C2CCN1CC2` (stereo unspecified) [PRIMA-1MET] + COc1cc2c(Oc3ccc(NC(=O)C4(C(=O)Nc5ccc(F)cc5)CC4)cc3F)ccnc2cc1OCCCN1CCOCC1 [Foretinib] (partner 0.25 µM) showed a relative viability of 0.906.
`COCC1(CO)C(=O)C2CCN1CC2` (stereo unspecified) [PRIMA-1MET] + Cc1nc(NC(=O)N2CCC[C@H]2C(N)=O)sc1-c1ccnc(C(C)(C)C(F)(F)F)c1 [Alpelisib] (partner 2 µM) had a relative viability of 0.879.

The assay is the same for the next values; noted with them: first compound 2 µM.
In turn, `COCC1(CO)C(=O)C2CCN1CC2` (stereo unspecified) [PRIMA-1MET] + CS(=O)(=O)N1CCN(Cc2cc3nc(-c4cccc5[nH]ncc45)nc(N4CCOCC4)c3s2)CC1 [Pictilisib] (partner 1 µM) had a relative viability of 0.54.
On the same count and under the same terms, as for `COCC1(CO)C(=O)C2CCN1CC2` (stereo unspecified) [PRIMA-1MET] + CS(=O)(=O)CCNCc1ccc(-c2ccc3ncnc(Nc4ccc(OCc5cccc(F)c5)c(Cl)c4)c3c2)o1 [Lapatinib] (partner 2 µM), the figure is 0.596; as for `COCC1(CO)C(=O)C2CCN1CC2` (stereo unspecified) [PRIMA-1MET] + C[C@]1(O)C[C@@H](c2nc(-c3ccc4ccc(-c5ccccc5)nc4c3)c3c(N)nccn32)C1 [Linsitinib] (partner 1 µM), 0.833; as for `COCC1(CO)C(=O)C2CCN1CC2` (stereo unspecified) [PRIMA-1MET] + COc1cc2c(Oc3ccc(NC(=O)C4(C(=O)Nc5ccc(F)cc5)CC4)cc3F)ccnc2cc1OCCCN1CCOCC1 [Foretinib] (partner 0.25 µM), 0.942.
`COCC1(CO)C(=O)C2CCN1CC2` (stereo unspecified) [PRIMA-1MET] + Cc1nc(NC(=O)N2CCC[C@H]2C(N)=O)sc1-c1ccnc(C(C)(C)C(F)(F)F)c1 [Alpelisib] (partner 2 µM) displayed a relative viability of 0.999.

The assay is the same for the next values; noted with them: first compound 6.325 µM.
Take `COCC1(CO)C(=O)C2CCN1CC2` (stereo unspecified) [PRIMA-1MET] + CS(=O)(=O)N1CCN(Cc2cc3nc(-c4cccc5[nH]ncc45)nc(N4CCOCC4)c3s2)CC1 [Pictilisib] (partner 1 µM): the relative viability is 0.415.
Same read-out and setting: as for `COCC1(CO)C(=O)C2CCN1CC2` (stereo unspecified) [PRIMA-1MET] + CS(=O)(=O)CCNCc1ccc(-c2ccc3ncnc(Nc4ccc(OCc5cccc(F)c5)c(Cl)c4)c3c2)o1 [Lapatinib] (partner 2 µM), the figure is 0.688; as for `COCC1(CO)C(=O)C2CCN1CC2` (stereo unspecified) [PRIMA-1MET] + C[C@]1(O)C[C@@H](c2nc(-c3ccc4ccc(-c5ccccc5)nc4c3)c3c(N)nccn32)C1 [Linsitinib] (partner 1 µM), 0.742; as for `COCC1(CO)C(=O)C2CCN1CC2` (stereo unspecified) [PRIMA-1MET] + COc1cc2c(Oc3ccc(NC(=O)C4(C(=O)Nc5ccc(F)cc5)CC4)cc3F)ccnc2cc1OCCCN1CCOCC1 [Foretinib] (partner 0.25 µM), 0.952.
On the same count and under the same terms, as for `COCC1(CO)C(=O)C2CCN1CC2` (stereo unspecified) [PRIMA-1MET] + Cc1nc(NC(=O)N2CCC[C@H]2C(N)=O)sc1-c1ccnc(C(C)(C)C(F)(F)F)c1 [Alpelisib] (partner 2 µM), the figure is 0.834.

Still in this assay, the particulars now being: first compound 20 µM.
In the case of `COCC1(CO)C(=O)C2CCN1CC2` (stereo unspecified) [PRIMA-1MET] + CS(=O)(=O)N1CCN(Cc2cc3nc(-c4cccc5[nH]ncc45)nc(N4CCOCC4)c3s2)CC1 [Pictilisib] (partner 1 µM), the relative viability was 0.198.
On the same count and under the same terms, to `COCC1(CO)C(=O)C2CCN1CC2` (stereo unspecified) [PRIMA-1MET] + CS(=O)(=O)CCNCc1ccc(-c2ccc3ncnc(Nc4ccc(OCc5cccc(F)c5)c(Cl)c4)c3c2)o1 [Lapatinib] (partner 2 µM) belongs 0.275; to `COCC1(CO)C(=O)C2CCN1CC2` (stereo unspecified) [PRIMA-1MET] + C[C@]1(O)C[C@@H](c2nc(-c3ccc4ccc(-c5ccccc5)nc4c3)c3c(N)nccn32)C1 [Linsitinib] (partner 1 µM), 0.134.
